Measured values published in US12605541B2, “Stabilized anti-cancer cold atmospheric plasma (CAP)-stimulated media and methods for preparing and using same” (The George Washington University, priority 2015, dated 2026).
Where two headings read alike, the source gives them in different places.

Legend:
[1] = for effect of the appearance of the component in DMEM on H2O2 during storage: 3 days of storage at −25° C., FIG. 5d; for effect of the presence of the component in DMEM on H202 in PSM during storage: three days of storage at 8° C., FIG. 3b; for effect of the component on H2O2 in CAP-stimulated PBS during storage: at 8° C. (FIG. 3a) (so in the source)
Experimental: The general research strategy described herein is illustrated in FIG. 1b. I mL of PSM was made by the vertical irradiation on the medium in a well on a 12-well plate. Then, the PSM was transferred to a 1.5 mL centrifuge tube by pipette. The centrifuge tubes were stored in refrigerators with different internal temperatures (8° C. and −25° C.) for 3 days. Additionally, some centrifuge tubes were stored at 22° C., for the investigation of PSM degradation at room temperature. Ultimately, the PSM was either transferred to culture the seeded cancer cells in a 96-well plate or transferred into a black wall 96-well plate to measure for H2O2 concentration. Because PBS is not suitable for cell culture, the protocols used to transfer the CAP-stimulated PBS are slightly different from those used to transfer the CAP-stimulated DMEM.
The protocols to prepare PSM are the same among different experiments. 1 mL of PBS or DMEM (or modified DMEM, such as cysteine/methionine-free DMEM) in a well on a Coming™ Falcon™ 12-well plate was treated by CAP for 1 or 2 minutes. The gap between the end of dielectric plasma tube and the bottom of 12-well plate was 3 cm.
H2O2 containing PBS and H2O2 containing DMEM were prepared by adding 30 wt¾ H2O2 solution to PBS and DMEM, respectively.
The amino acid(s) containing PBS, calcium containing PBS, magnesium containing PBS, glucose containing PBS, phenol red containing PBS, and amino acid(s) containing DMEM were prepared by adding and dissolving specific amino acid(s), calcium chloride solution, magnesium chloride solution, D-glucose, phenol red solution or an amino acid derivative (such as 3-nitro-L-tyrosine) in PBS and DMEM, respectively. With the exception of PBS and DMEM, the added components were purchased from Sigma Aldrich.
50 μL of CAP-stimulated medium or PBS to be analyzed for H2O2 concentration was transferred to a well on a black-wall Coming™ Falcon™ 96-well clear bottom plate in triplicate. Subsequently, according to standard protocols provided by Sigma Aldrich (St. Louis, MO), the H2O2 concentration in the cold plasma-stimulated medium was measured as follows. First, 50 μL of red peroxidase substrate stock solution, 200 μL of peroxidase stock solution, and 4.75 ml of assay buffer were mixed to prepare H2O2 probe solution. 50 μL of probe solution was then added in the black 96-well plate and mixed with 50 μL of the CAP-stimulated medium or PBS. After 30 min of storage at the room temperature, with protecting from light, a Hybrid Technology HI microplate reader (BioTek Instruments, Winooski, VT) was used to measure the fluorescence with an excitation wavelength at 540 nm and an emission wavelength at 590 nm. The final measured fluorescent strength of the experimental group was obtained by deducting the measured fluorescence of the control group from the measured fluorescence of the experimental group. The standard H202 solution was used to prepare the standard H202 concentration-fluorescence curve. Based on this standard curve, we obtained the H202 concentration in CAP-stimulated medium or PBS. The triplicate experiments were independently repeated for three times

MDA-MB-231 cells = assay: MTT cell viability of breast cancer cells cultured in CAP-stimulated media; type: cell-based, human; conditions: CAP treatment time 2 minutes, storage at −25° C. for 3 days, FIG. 5e
Experimental: All DMEM and PBS were mixed with 1% (v/v) antibiotic (penicillin and streptomycin) (Thermo Fisher Scientific) before any experiments were performed. […] All cancer cell lines were seeded with a confluence of 3×10^4 cells/mL and a volume of 100 μL in each well on a 96-well plate and were cultured for 6 hours in a complete media composed of Dulbecco's modified Eagle's medium supplemented with 10% (v/v) fetal bovine serum (Thermo Fisher Scientific). and 1% (v/v) antibiotic (penicillin and streptomycin) solution under standard cell culture conditions (a humidified, 37° C., 5% CO2 environment). In each experiment, 6 wells in a single column on the 96-well plate were seeded with cancer cells.
First, the initial culture medium which had been cultured cells for 6 hours was removed before this step. […] In each experiment, 6 wells in a single column on the 96-well plate were seeded with cancer cells. […]
The cancer cells in the 96-well plates were cultured in the 96-well plate under standard cell culture conditions (a humidified, 37° C., 5% CO2 environment) for 3 days. […] The 96-well plate filled with hydrochloric acid containing isopropanol solution was then read by a Hybrid Technology HI microplate reader (BioTek Instruments, Winooski, VT) at a 570 nm of absorbance. […] The average value of measured cell viability from 6 wells was regarded as the cell viability measured from one independent experiment. […]

| SMILES | effect of the component on H2O2 degradation in CAP-stimulated PBS during freezing storage [1] | effect of the component on H202 degradation in CAP-stimulated PBS-based solution [1] | effect of the appearance of the component in DMEM on H2O2 during storage [1] | effect of the presence of the component in DMEM on H202 in PSM during storage [1] | effect of the appearance of the component in DMEM on the anti-cancer capacity of PSM (MDA-MB-231 cells) | effect of the component on H2O2 in CAP-stimulated PBS during storage [1] | effect of the component on H2O2 degradation in CAP-stimulated PBS during freezing storage ([1]; storage at −25° C., FIG. 5c) |
| --- | --- | --- | --- | --- | --- | --- | --- |
| N[C@@H](CS)C(=O)O [cysteine] | two most reactive components | most significant degradation | complete consumption of H2O2 | noticeable H202 degradation | significantly aggravates the degradation | – | – |
| NCCCC[C@H](N)C(=O)O [lysine] | – | – | – | – | – | inhibit the degradation | aggravate the degradation |
| N[C@@H](Cc1c[nH]c2ccccc12)C(=O)O [tryptophan] | aggravate the degradation | – | – | – | – | inhibit the degradation | – |

The next lines start with results.

| effect of the component on H2O2 degradation in CAP-stimulated PBS during freezing storage [1] | effect of the component on H202 degradation in CAP-stimulated PBS-based solution [1] | effect of the appearance of the component in DMEM on H2O2 during storage [1] | effect of the presence of the component in DMEM on H202 in PSM during storage [1] | SMILES | effect of the appearance of the component in DMEM on the anti-cancer capacity of PSM (MDA-MB-231 cells) | effect of the component on H2O2 in CAP-stimulated PBS during storage [1] | effect of the component on H2O2 degradation in CAP-stimulated PBS during freezing storage ([1]; storage at −25° C., FIG. 5c) |
| --- | --- | --- | --- | --- | --- | --- | --- |
| two most reactive components | most significant degradation | complete consumption of H2O2 | noticeable H202 degradation | CSCC[C@H](N)C(=O)O [methionine] | significantly aggravates the degradation | – | – |
| – | noticeable degradation | – | – | N[C@@H](Cc1ccccc1)C(=O)O [phenylalanine] | – | noticeable H2O2 degradation | – |
| aggravate the degradation | – | – | – | N[C@@H](Cc1ccc(O)cc1)C(=O)O [tyrosine] | – | – | – |
